The species named for assay [1] is Mus musculus. Briefly: The tumor growth value was reported as ratio of surviving days of mice treated with anticancer drug to surviving days of control mice. The assay is classed as functional.
Assay [2] deals with NCI/ADR-RES. Briefly: Compound was tested in vitro for cytotoxicity against MCF-7ADR, human breast cancer cells (taxol-resistant) at a drug concentration producing 50% inhibition of colony formation. In kind it is functional. The conditions noted are these: read-out: ID50 (the source's name).
The test system of assay [3] is Mus musculus. Put plainly: Compound was tested in vivo for antitumor activity, reported as non toxic dose (NTD) in mice injected intraperitoneally with drug.
Assay [4] has as its system HCT-116. Briefly: Compound was tested in vitro for cytotoxicity against HCT116, human colon cancer cells (taxol-sensitive) at a drug concentration producing 50% inhibition of colony formation. To be noted: read-out: ID50 (the source's name).
The subject of assay [5] is HCT-116/VM46. Put plainly: Compound was tested in vitro for cytotoxicity against VM46 subline of HCT116 (taxol-resistant) at a drug concentration producing 50% inhibition of colony formation. The conditions noted are these: Homo sapiens, read-out: ID50 (the source's name).
Assay [6] concerns PC-3. Briefly: Compound was tested in vitro for cytotoxicity against PC-3, human prostate cancer cells (taxol-sensitive) at a drug concentration producing 50% inhibition of colony formation. The assay is classed as functional. To be noted: read-out: ID50 (the source's name).
In assay [7] the test system is Mus musculus. Briefly: Compound was tested in vivo for antitumor activity, reported as maximum tolerated dose (MTD) in mice injected intraperitoneally with drug.

What is called T/C is the ratio of treated to control. Regarding `CC[C@@]1(OC(=O)CCCOc2ccc(Cl)cc2Cl)C(=O)OCc2c1cc1n(c2=O)Cc2cc3ccccc3nc2-1`, the T/C in assay [1] came out at 250%. Moreover, the IC50 in assay [2] amounted to 89 nM; in assay [4] it was 39 nM; in assay [5], 27 nM. For the same compound, the NTD in assay [3] is 100 mg/kg.
Consider `CC[C@@]1(OC(=O)CO[C@@H]2C[C@H](C)CC[C@H]2C(C)C)C(=O)OCc2c1cc1n(c2=O)Cc2cc3ccccc3nc2-1`, for which the T/C in assay [1] is given as 200%. For the same compound, the IC50 in assay [2] came out at 7.2 nM; in assay [6], 6.2 nM; in assay [4], 3.6 nM; in assay [5], 2.5 nM. This compound returned an NTD in assay [3] of 100 mg/kg.
With `CC[C@@]1(OC(=O)COc2ccc(Br)cc2)C(=O)OCc2c1cc1n(c2=O)Cc2cc3ccccc3nc2-1`, in assay [1], the T/C is 300%. The IC50 stood at 5.5 nM in assay [2], 3.2 nM in assay [6], 3 nM in assay [4] and 1.9 nM in assay [5]. The same compound registered an NTD in assay [3] of 150 mg/kg.
Consider `CC[C@@]1(OC(=O)COc2ccc3ccccc3c2)C(=O)OCc2c1cc1n(c2=O)Cc2cc3ccccc3nc2-1`, for which the T/C in assay [1] was found to be 117%. Moreover, the IC50 was determined as 4.1 nM in assay [2], 3.9 nM in assay [6], 3 nM in assay [4] and 1.8 nM in assay [5]. The NTD in assay [3] was 150 mg/kg.
For `CC[C@@]1(OC(=O)COc2ccc([N+](=O)[O-])cc2)C(=O)OCc2c1cc1n(c2=O)Cc2cc3ccccc3nc2-1`, the T/C in assay [1] turned out to be 250%. Besides, the IC50 in assay [2] was found to be 7 nM; in assay [6], 4.8 nM; in assay [4], 3.3 nM; in assay [5] it was 3 nM. In assay [3], this compound displayed an NTD of 100 mg/kg.
On to `CC[C@@]1(OC(=O)COc2ccc3c(C)c(Cl)c(=O)oc3c2)C(=O)OCc2c1cc1n(c2=O)Cc2cc3ccccc3nc2-1`, for which the T/C in assay [1] amounted to 200%. The IC50 in assay [2] worked out at 5.2 nM; in assay [6] it was 3 nM; in assay [4] it was 3.5 nM; in assay [5] it was 0.7 nM. The same compound came in with an NTD in assay [3] of 75 mg/kg.
With `CC[C@@]1(OC(=O)COc2ccc(Cl)cc2C)C(=O)OCc2c1cc1n(c2=O)Cc2cc3ccccc3nc2-1`, the T/C in assay [1] is 217%. Further, the IC50 came out at 4.3 nM in assay [2], 3.5 nM in assay [6], 2.7 nM in assay [4] and 0.9 nM in assay [5]. Moreover, in assay [3], the NTD amounted to 150 mg/kg.
Consider `CC[C@@]1(OC(=O)CCCCOc2ccc(F)cc2Br)C(=O)OCc2c1cc1n(c2=O)Cc2cc3ccccc3nc2-1`, for which the IC50 is over 100 nM in assay [2], over 100 nM in assay [4] and 94 nM in assay [5]. The NTD in assay [3] was determined as 150 mg/kg.
With `CC[C@@]1(OC(=O)CCOc2ccccc2)C(=O)OCc2c1cc1n(c2=O)Cc2cc3ccccc3nc2-1`, the T/C in assay [1] is 133%. Also, the IC50 amounted to 28 nM in assay [2], 8 nM in assay [4] and 7 nM in assay [5]. Besides, in assay [3], the NTD is 150 mg/kg.
For the compound `CC[C@@]1(OC(=O)COc2ccc3c(c2)OCO3)C(=O)OCc2c1cc1n(c2=O)Cc2cc3ccccc3nc2-1`, the T/C in assay [1] came out at 200%. Moreover, the IC50 amounted to 5 nM in assay [2], 4.6 nM in assay [6], 3.1 nM in assay [4] and 2.4 nM in assay [5]. For the same compound, in assay [3], the NTD is 45 mg/kg.
As a reminder, the MTD is the largest dose that counted as tolerated. A high value points to better tolerability. In assay [7], `CC[C@@]1(O)C(=O)OCc2c1cc1n(c2=O)Cc2cc3ccccc3nc2-1` [CAMPTOTHECIN] had an MTD of 12 mg/kg. Further, the T/C in assay [1] worked out at 183%. Also, the IC50 in assay [2] amounted to 3.9 nM; in assay [6], 3.8 nM; in assay [4], 2.8 nM; in assay [5] it was 2.4 nM.
`CCc1c2c(nc3ccc(OC(=O)N4CCC(N5CCCCC5)CC4)cc13)-c1cc3c(c(=O)n1C2)COC(=O)[C@]3(O)CC` [IRINOTECAN] displayed an MTD in assay [7] of 200 mg/kg. Besides, the T/C in assay [1] is reported as 217%. Also, the IC50 in assay [2] is over 500 nM; in assay [4] it was 540 nM; in assay [5], 220 nM.
For `CC(=O)O[C@H]1C(=O)[C@@]2(C)[C@H]([C@H](OC(=O)c3ccccc3)[C@]3(O)C[C@H](OC(=O)[C@H](O)[C@@H](NC(=O)c4ccccc4)c4ccccc4)C(C)=C1C3(C)C)[C@]1(OC(C)=O)CO[C@@H]1C[C@@H]2O` [PACLITAXEL], in assay [7], the MTD came to 40.6 mg/kg. Also, the T/C in assay [1] was 150%. Moreover, the IC50 in assay [2] was over 10000 nM; in assay [6], 4 nM; in assay [5], over 50 nM.

The values above are taken from ChEMBL document CHEMBL1135295, “Novel camptothecin derivatives. Part 1: oxyalkanoic acid esters of camptothecin and their in vitro and in vivo antitumor activity” (2002).
